Molecules are shown by their SMILES. Read-outs that look alike come from different tables or passages of the source.

This experiment has as its system form deprivation myopia. The conditions noted are these: for difference of binocular refractions / difference of binocular axial lengths: 2 weeks after form deprivation, p<0.01; for difference of binocular axial lengths: vehicle 0.17±0.05.

Consider `O=C(O)c1cccnc1` [nicotinic acid], for which, where the note is “FDM+NA (0.1 mg), FDM+Vehicle −5.43±1.69, FIG. 5A”, the “difference of binocular refractions” value is listed as −3.43±1.80 D. The “difference of binocular axial lengths” value (FDM+NA (0.1 mg), FIG. 5B) is recorded as 0.10±0.06 mm. For the same compound, the “choroidal blood flow, fellow eye vs. test eye” value (after periocular injection of 0.1 mg nicotinic acid, 2 weeks form deprivation, FIG. 5C) is recorded as “no statistical difference between two eyes”.

Take `COc1cc2nc(N3CCN(C(=O)c4ccco4)CC3)nc(N)c2cc1OC` [prazosin]: the “difference of binocular refractions” value (FDM+Pr (10 μM), FDM+Vehicle −5.98±2.22, FIG. 6A) was −3.26±2.22 D. Moreover, the “difference of binocular axial lengths” value (FDM+Pr (10 μM), FIG. 6B) is listed as 0.10±0.06 mm.
